Source: PMC8276771 (Bioorganic & medicinal chemistry letters, 2021)
“Also recorded” adds a separate entry of the source. One block for each compound: values may come before it.

Tests used:
[1] = target: T1, hP2Y14R (Homo sapiens, UniProt Q15391); assay: Fluorescent antagonist binding assay by flow cytometry of hP2Y14R-CHO cells
T1 sequence (Q15391 1-338): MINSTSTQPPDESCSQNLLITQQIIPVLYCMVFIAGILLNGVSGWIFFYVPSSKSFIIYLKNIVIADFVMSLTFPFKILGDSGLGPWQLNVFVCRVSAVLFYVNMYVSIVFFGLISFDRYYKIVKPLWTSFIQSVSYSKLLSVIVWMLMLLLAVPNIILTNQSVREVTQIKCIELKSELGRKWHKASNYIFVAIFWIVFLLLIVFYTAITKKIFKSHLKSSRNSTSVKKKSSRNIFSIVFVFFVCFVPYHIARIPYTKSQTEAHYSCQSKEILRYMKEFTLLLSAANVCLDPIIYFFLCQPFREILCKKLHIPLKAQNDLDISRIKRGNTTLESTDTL

[2] = system: rat CD73; settings: rat CD73, 5 μM AMP substrate, ref Junker et al. [33], cited from earlier work
[3] = system: hP2YR; settings: cited from earlier work
[4] = target: human P2Y6R (Homo sapiens, UniProt Q15077); assay: Calcium mobilization; settings: for P2Y6R activation (in words) / fold reduction of P2Y6R potency relative to UDP 1: calcium mobilization; for P2Y6R activation (in words): hP2Y6R
[5] = system: 46 receptors, channels and transporters; assay: PDSP off-target panel; type: binding
[6] = system: hP2Y6R; settings: read-out: hP2Y6R EC50; cited from earlier work
[7] = system: P2Y14R; settings: cited from earlier work

Chain of human P2Y6R (Q15077 whole entry): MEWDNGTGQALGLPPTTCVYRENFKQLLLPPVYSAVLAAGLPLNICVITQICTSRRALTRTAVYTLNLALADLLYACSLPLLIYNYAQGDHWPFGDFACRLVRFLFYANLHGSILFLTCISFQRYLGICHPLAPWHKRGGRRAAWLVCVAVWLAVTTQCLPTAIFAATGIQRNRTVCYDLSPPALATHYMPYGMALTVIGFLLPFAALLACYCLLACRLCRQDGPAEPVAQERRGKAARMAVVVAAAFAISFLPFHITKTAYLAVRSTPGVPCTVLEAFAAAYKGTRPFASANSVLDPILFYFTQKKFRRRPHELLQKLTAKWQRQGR

- selectivity between P2Y6R and P2Y14R (in words) [1]: nonselective
SMILES: CCN(CC)CC.CCN(CC)CC.O=c1[nH]c(=O)n([C@@H]2O[C@H](COP(=O)(O)CP(=O)(O)O)[C@@H](O)[C@H]2O)cc1F [Compound 16, 5-Fluoro-5′-αβ-methylene-UDP]
- IC50 ([2]; read-out: CD73 IC50): > 1000 nM

SMILES: O=c1ccn([C@@H]2O[C@H](COP(=O)(O)O)[C@@H](O)[C@H]2O)c(=O)[nH]1 [UMP]
- activation of hP2YRs (in words) [3]: does not activate any hP2YR

SMILES: O=c1ccn([C@@H]2O[C@H](COP(=O)(O)CP(=O)(O)O)[C@@H](O)[C@@H]2O)c(=O)[nH]1 [Compound 39]
- P2Y6R activation (in words) [4]: completely prevent P2Y6R activation; also recorded: prevented P2Y6R activation

- EC50 [4]: 1690 nM
SMILES: O=c1[nH]/c(=N\OCc2ccc(S(F)(F)(F)(F)F)cc2)ccn1[C@@H]1O[C@H](COP(=O)(O)CP(=O)(O)O)[C@@H](O)[C@H]1O [Compound 27]

- fold reduction of P2Y6R potency relative to UDP 1 [4]: 12 fold
SMILES: CCN(CC)CC.CCN(CC)CC.CO/N=c1/ccn([C@@H]2O[C@H](COP(=O)(O)OP(=O)(O)O)[C@@H](O)[C@H]2O)c(=O)[nH]1 [Compound 11]

- selectivity between P2Y6R and P2Y14R (in words) [1]: nonselective
SMILES: CCN(CC)CC.CCN(CC)CC.O=C(/N=c1/ccn([C@@H]2O[C@H](COP(=O)(O)CP(=O)(O)O)[C@@H](O)[C@H]2O)c(=O)[nH]1)c1ccccc1 [Compound 30]

- off-target activities (significant = >50% binding inhibition at 10 μM) [5]: no significant
SMILES: O=c1ccn([C@@H]2O[C@H](COP(=O)(O)CP(=O)(O)O)[C@@H](O)[C@H]2O)c(=S)[nH]1 [Compound 14b, 2-thiouridine-5′-O-(α,β-methylene)diphosphate, reference compound]
- CD73 % inhibition at 1 μM ([2]; 1 μM): 7%

SMILES: O=c1cnn([C@@H]2O[C@H](COP(=O)(O)CP(=O)(O)O)[C@@H](O)[C@H]2O)c(=O)[nH]1 [Compound 40]
- P2Y6R activation (in words) [4]: completely prevent P2Y6R activation; also recorded: prevented P2Y6R activation

- fold reduction of P2Y6R potency relative to UDP 1 [4]: 19 fold
SMILES: CCN(CC)CC.CCN(CC)CC.O=c1[nH]/c(=N/OCc2ccccc2)ccn1[C@@H]1O[C@H](COP(=O)(O)OP(=O)(O)O)[C@@H](O)[C@H]1O [Compound 13]

SMILES: O=c1ccn([C@@H]2O[C@H](COP(=O)(O)OP(=O)(O)OP(=O)(O)O)[C@@H](O)[C@H]2O)c(=O)[nH]1 [UTP]
- EC50 [6]: > 10000 nM
- P2Y14R activity (in words) [7]: inactive

SMILES: CCN(CC)CC.CCN(CC)CC.CCn1c(=O)n([C@@H]2O[C@H](COP(=O)(O)CP(=O)(O)O)[C@@H](O)[C@H]2O)cc/c1=N/OCc1ccccc1 [Compound 38]
- P2Y6R activation (in words) [4]: completely prevent P2Y6R activation; also recorded: prevented P2Y6R activation

SMILES: CCN(CC)CC.CCN(CC)CC.Cn1c(=O)n([C@@H]2O[C@H](COP(=O)(O)CP(=O)(O)O)[C@@H](O)[C@H]2O)cc/c1=N/OCc1ccccc1 [Compound 37]
- P2Y6R activation (in words) [4]: completely prevent P2Y6R activation; also recorded: prevented P2Y6R activation
